Counter-ions that a name gives are not always drawn.
tested on: not given; test: not given; details: not given

Q: Which melting point does the source give for `Fc1cc(F)cc(C2CCNCC2)c1` (as salt: fumaric acid salt) [Example 3, 4-(3,5-DIFLUOROPHENYL)PIPERIDINE] here?
A: 178 °C

Q: Which melting point does the source give for `CN1CCC(c2ccc(F)cc2F)CC1` (as salt: hydrochloric acid salt) [Example 11, 4-(2,4-DIFLUOROPHENYL)-1-METHYLPIPERIDINE] here?
A: 198 °C

Q: Which melting point does the source give for `Fc1ccc(C2CCNCC2)cc1F` (as salt: hydrochloric acid salt) [Example 4, 4-(3,4-DIFLUOROPHENYL)PIPERIDINE] here?
A: 255 to 256 °C

Q: For `Fc1cc(Cl)cc(C2CCNCC2)c1` (as salt: hydrochloric acid salt) [Example 10, 4-(3-CHLORO-5-FLUOROPHENYL)PIPERIDINE], which melting point is on record?
A: 243 °C

Q: Which melting point does the source give for `Fc1ccc(C2CCNCC2)c(F)c1` (as salt: hydrochloric acid salt) [Example 1, 4-(2,4-DIFLUOROPHENYL)PIPERIDINE] here?
A: 256 to 258 °C

Q: For `Clc1ccc(C2CCNCC2)cc1Cl` (as salt: hydrochloric acid salt) [Example 6, 4-(3,4-DICHLOROPHENYL)PIPERIDINE], which melting point is on record?
A: 170 °C

Q: Which melting point does the source give for `Fc1ccc(C2CCNCC2)cc1C(F)(F)F` (as salt: hydrochloric acid salt) here?
A: 195 to 196 °C

Q: Which melting point does the source give for `Fc1ccc(C2CCNCC2)cc1Cl` (as salt: oxalic acid salt) [Example 9, 4-(3-CHLORO-4-FLUOROPHENYL)PIPERIDINE] here?
A: 147 °C

tested on: DOPAC levels (3,4-dihydroxyphenylacetic acid) in the rat striatum; test: In vivo test: neurochemistry, tissue content of DOPAC in the striatum; details: sc, 1 h, 100 μmol/kg s.c., 60 minutes after administration, %-increase from control value
Protocol: In short, male Sprague-Dawely rats are administered the test compound 60 minutes prior to decapitation. The brain is rapidly taken out and dissected. The striatum is rapidly frozen and subsequently quantitatively analysed with respect to its content of DOPAC by means of HPLC and electrochemical detection. The number of animals used for each test compound/vehicle is 4/group.
Male Sprague-Dawley rats weighing 220-320 g are used throughout the experiments. Sixty (60) minutes following administration of the test substance, the rats are decapitated. Directly after decapitation the brain is removed from the skull and put on a glass petri bowl filled with ice. The limbic system (containing the nucleus accumbens—both the core and shell, most parts of the olfactory tubercle and ventral pallidum) is dissected using two thin, angled tweezers and put directly on foil on dry ice (carbon dioxide −78° C.). The striatum and cortex are then dissected and also put on dry ice. The time from decapitation until the last tissue is dissected varies from four to six minutes. The tissue is weighed using a Sartorius BP3105 connected to a computer and packed in labelled tin foil, then stored in an −80° C. freezer. Great care is taken in order to keep the tissue frozen until the time of neurochemical analysis. Each brain part is subsequently analyzed with respect to its content of monoamines and their metabolites.
The monoamine transmitter substances (NE (norepinephrine), DA (dopamine), 5-HT (serotonin)) as well as their amine (NM (normethanephrine), 3-MT (3-methoxytyramine)) and acid (DOPAC (3,4-dihydroxyphenylacetic acid), 5-HIAA (5-hydroxyindoleacetic acid), HVA (homovanillic acid)) metabolites are quantified in brain tissue homogenates by HPLC separations and electrochemical detection.
The analytical method is based on two chromatographic separations dedicated for amines or acids. Two chromatographic systems share a common auto injector with a 10-port valve and two sample loops for simultaneous injection on the two systems. Both systems are equipped with a reverse phase column (Luna C18(2), dp 3 μm, 50*2 mm i.d., Phenomenex) and electrochemical detection is accomplished at two potentials on glassy carbon electrodes (MF-1000. Bioanalytical Systems, Inc.). The column effluent is passed via a T-connection to the detection cell or to a waste outlet. This is accomplished by two solenoid valves, which block either the waste or detector outlet. By preventing the chromatographic front from reaching the detector, better detection conditions are achieved. […] Detection potentials relative to Ag/AgCl reference are 0.45 and 0.60V. […] Detection potentials relative to Ag/AgCl reference are 0.45 and 0.65V.

Q: Which change in vivo at 100 µmol/kg does the source give for `CCN1CCC(c2cc(F)cc(C(F)(F)F)c2)CC1` [reference compound] here?
A: 232%

Q: For `Fc1ccc(C2CCNCC2)cc1C(F)F`, which change in vivo at 100 µmol/kg is on record?
A: 17%

Q: Which change in vivo at 100 µmol/kg does the source give for `CCN1CCC(c2ccc(F)c(C(F)(F)F)c2)CC1` [reference compound] here?
A: 75%

Q: For `CCCN1CCC(c2cc(F)cc(C(F)(F)F)c2)CC1` [reference compound], which change in vivo at 100 µmol/kg is on record?
A: 239%

Q: For `Fc1cc(Cl)cc(C2CCNCC2)c1` [drawing 18], which change in vivo at 100 µmol/kg is on record?
A: -26%

Q: Which change in vivo at 100 µmol/kg does the source give for `CCCN1CCC(c2cccc(S(C)(=O)=O)c2)CC1` [reference compound] here?
A: 114%

Q: With `Fc1ccc(C2CCNCC2)c(F)c1` [drawing 13] as the compound, how does the change in vivo at 100 µmol/kg read?
A: -36%

Q: For `CN1CCC(c2ccc(F)cc2F)CC1` [drawing 19], which change in vivo at 100 µmol/kg is on record?
A: -41%

Q: With `Fc1ccc(C2CCNCC2)cc1Cl` [drawing 17] as the compound, how does the change in vivo at 100 µmol/kg read?
A: -29%

Q: Which change in vivo at 100 µmol/kg does the source give for `CCCN1CCC(c2ccc(Cl)c(C(F)(F)F)c2)CC1` [reference compound] here?
A: 94%

Q: For `Fc1cc(F)cc(C2CCNCC2)c1` [drawing 15], which change in vivo at 100 µmol/kg is on record?
A: -19%

Q: Which change in vivo at 100 µmol/kg does the source give for `CCCN1CCC(c2ccc(F)c(C(F)(F)F)c2)CC1` [reference compound] here?
A: 94%

Q: For `Clc1ccc(C2CCNCC2)cc1Cl` [drawing 16], which change in vivo at 100 µmol/kg is on record?
A: -14%

tested on: extracellular levels of dopamine and norepinephrine; test: In vivo test: microdialysis, extracellular monoamines in striatum and prefrontal cortex; parameters: species or system rat; details: 50 μmol/kg s.c.; pf. cortex; awake and freely moving rats; FIGS. 11-24
Source text: The microdialysis technique (Ungerstedt, Herrera-Marschitz et al. 1982) is a well established technique for measuring extracellular levels of neurotransmitters (Ungerstedt 1991). The microdialysis technique was used to measure the effect of drugs upon the monoamine transmitters. The appended graphs (FIGS. 9 and 10) show the effects of one established antidepressant (mirtazapine) upon monoamines in the striatum and frontal cortex, as well as for seven compounds claimed in the present invention (FIGS. 11-24; Examples 1, 3, 4, 6, 9, 10 and 11). The number of animals (n) used for each compound tested is noted in the figure legend.
Male Sprague-Dawley rats weighing 220-320 g were used throughout the experiments. Before the experiment the animals were group housed, five animals in each cage, with free access to water and food. The animals were housed at least one week after arrival prior to surgery and use in the experiments. Each rat was used only once for microdialysis. We use a modified version (Waters, Lofberg et al. 1994) of the I-shaped probe (Santiago and Westerink 1990). The dialysis membrane we use is the AN69 polyacrylonitrile/sodium methalylsulfonate copolymer (HOSPAL; o.d./i.d. 310/220 μm: Gambro, Lund, Sweden). In the dorsal striatum we use probes with an exposed length of 3 mm of dialysis membrane and in the prefrontal cortex the corresponding length is 2.5 mm. The rats were operated under isoflurane inhalation anesthesia while mounted into a Kopf stereotaxic instrument. Coordinates were calculated relative to bregma; dorsal striatum AP+1, ML±2.6, DV−6.3; Pf cortex, AP+3.2, 8° ML±1.2, DV−4.0 according to (Paxinos and Watson 1986). The dialysis probe was positioned in a burr hole under stereotaxic guidance and cemented with phosphatine dental cement.
The rats were housed individually in cages for 48 h before the dialysis experiments, allowing them to recover from surgery and minimizing the risk of drug interactions with the anaesthetic during the following experiments. During this period the rats had free access to food and water. On the day of experiment the rats were connected to a micro perfusion pump via a swivel and were replaced in the cage where they could move freely within its confinements. The perfusion medium was a Ringer's solution containing in mmol/l: NaCl; 140, CaCl2; 1.2, KCl; 3.0, MgCl2; 1.0 and ascorbic acid; 0.04 according to (Moghaddam and Bunney 1989). The pump was set to a perfusion speed of 2 μl/min and 40 μl samples were collected every 20 min.
30 μl of each sample was injected into the chromatograph. On a 10-port injector (Valco C10W), with two sample loops mounted in series (2 μl and 20 μl), each brain dialysate sample is loaded in both loops simultaneously. When the valve is switched to inject the main part of the 20 μl sample is introduced into a reverse-phase ion-pairing system for dopamine (DA), norepinephrine (NE), normetanephrine (NM), 3-methoxytyramine (3-MT) and serotonin (5-hydroxytryptamine, 5-HT) determination (large loop), while a small fraction (2 μl, from the small loop) is introduced on a reverse-phase column for the chromatography of the acidic monoamine metabolites 3,4-di-hydroxyphenylacetic acid (DOPAC), homovanillic acid (HVA) and 5-hydroxyindoleacetic acid (5-HIAA). The currents generated by the two EC detectors are converted to digital data and evaluated using Chromelion software (Dionex, Sunnyvale, Calif.) on a PC. The method sample turn over time was 4.5 min and two parallel experiments are normally analysed simultaneously on the system. After the experiment the rats were uncoupled from the perfusion pump and decapitated. Their brains were rapidly taken out and fixed in Neo-fix solution (Kebo-lab, Sweden) for subsequent inspection of probe localisation. The Animal Ethics Committee in Göteborg, Sweden approved the procedures applied in these experiments. • Moghaddam, B. and B. S. Bunney (1989). […]

Q: Which “levels of dopamine and norepinephrine in the cortex (microdialysis)” value (“levels of dopamine and norepinephrine” for short) does the source give for `Fc1ccc(C2CCNCC2)cc1F` [Example 4, 4-(3,4-DIFLUOROPHENYL)PIPERIDINE] here?
A: elevate the levels of dopamine and norepinephrine in the cortex

Q: With `Fc1cc(Cl)cc(C2CCNCC2)c1` [Example 10, 4-(3-CHLORO-5-FLUOROPHENYL)PIPERIDINE] as the compound, how does the “levels of dopamine and norepinephrine” value read?
A: elevate the levels of dopamine and norepinephrine in the cortex

Q: With `Fc1cc(F)cc(C2CCNCC2)c1` [Example 3, 4-(3,5-DIFLUOROPHENYL)PIPERIDINE] as the compound, how does the “levels of dopamine and norepinephrine” value read?
A: elevate the levels of dopamine and norepinephrine in the cortex

Q: Which “levels of dopamine and norepinephrine” value does the source give for `Fc1ccc(C2CCNCC2)cc1Cl` [Example 9, 4-(3-CHLORO-4-FLUOROPHENYL)PIPERIDINE] here?
A: elevate the levels of dopamine and norepinephrine in the cortex

Q: With `CN1CCC(c2ccc(F)cc2F)CC1` [Example 11, 4-(2,4-DIFLUOROPHENYL)-1-METHYLPIPERIDINE] as the compound, how does the “levels of dopamine and norepinephrine” value read?
A: elevate the levels of dopamine and norepinephrine in the cortex

Q: With `Clc1ccc(C2CCNCC2)cc1Cl` [Example 6, 4-(3,4-DICHLOROPHENYL)PIPERIDINE] as the compound, how does the “levels of dopamine and norepinephrine” value read?
A: elevate the levels of dopamine and norepinephrine in the cortex

Q: Which “levels of dopamine and norepinephrine” value does the source give for `Fc1ccc(C2CCNCC2)c(F)c1` [Example 1, 4-(2,4-DIFLUOROPHENYL)PIPERIDINE] here?
A: elevate the levels of dopamine and norepinephrine in the cortex

same assay, conditions: 10 mg/kg s.c.; p.f. cortex; awake and freely moving rats; FIG. 10

Q: For `CN1CCN2c3ncccc3Cc3ccccc3C2C1` (centres unmarked) [mirtazapine, reference compound], which “extracellular norepinephrine and dopamine in the cortex (microdialysis)” value is on record?
A: increase predominantly extracellular norepinephrine and dopamine in the cortex

— patent US20080269286A1, “Disubstituted Phenylpiperidines as Modulators of Cortical Catecholaminergic Neurotransmission” (priority 2005, published 2008)
